Results taken from patent publication US11802120B2, “Fused cyclic urea derivatives as CRHR2 antagonist” (RaQualia Pharma Inc., priority 2018, dated 2023).

Biological target: T1, human CRHR2-alpha (Homo sapiens, UniProt Q13324)
T1 sequence (Q13324 1-411): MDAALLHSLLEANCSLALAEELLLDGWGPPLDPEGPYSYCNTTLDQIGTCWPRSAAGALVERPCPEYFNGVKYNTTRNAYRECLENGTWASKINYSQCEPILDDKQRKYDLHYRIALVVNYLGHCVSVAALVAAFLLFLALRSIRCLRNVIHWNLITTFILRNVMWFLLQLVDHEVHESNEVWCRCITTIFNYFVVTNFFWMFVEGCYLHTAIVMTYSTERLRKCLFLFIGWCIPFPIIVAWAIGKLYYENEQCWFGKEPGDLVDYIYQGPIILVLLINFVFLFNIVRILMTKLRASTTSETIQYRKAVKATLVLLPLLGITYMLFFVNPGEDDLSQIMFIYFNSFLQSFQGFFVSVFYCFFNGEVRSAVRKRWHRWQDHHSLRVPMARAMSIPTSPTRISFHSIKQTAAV
Assay: cAMP functional assay for human CRHR2 (LANCE Ultra cAMP, TR-FRET)
Format: cell-based
Conditions: CHO-K1 cells expressing human CRHR2-alpha, agonist human urocortin2 at EC80, cAMP; read-out: IC50 against CRHR2
Summary of the method: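 Antagonism measured in CHO-K1 cells stably expressing the receptor, serum-starved 7 h then cryopreserved. Thawed cells in HBSS buffer with 0.1% BSA, 0.5 mM IBMX, 5 mM Hepes pH 7.4 were preincubated with compound 30 min at 25° C, then stimulated 30 min with EC80 agonist: urocortin2 for CRHR2, CRF for CRHR1.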

IC50, < 300 nM:
Cc1ccc(-n2c(=O)n(C[C@H]3CC[C@H](NC(=O)c4cc(Cl)cnc4C)CC3)c3cccc(F)c32)cn1 [Example 121, 5-chloro-N-((1r,4r)-4-((4-fluoro-3-(6-methylpyridin-3-yl)-2-oxo-2,3-dihydro-1H-benzo[d]imidazol-1-yl)methyl)cyclo-hexyl)-2-methylnicotinamide]
CCc1nc2ncc(-n3c(=O)n(C[C@H]4CC[C@H](NC(=O)c5cc(Cl)cnc5C)CC4)c4ccccc43)cc2o1 [Example 355, 5-chloro-N-((1r,4r)-4-((3-(2-ethyloxazolo[4,5-b]pyridin-6-yl)-2-oxo-2,3-dihydro-1H-benzo[d]imidazol-1-yl)methyl)cyclohexyl)-2-methylnicotinamide]
Cc1ncc(Cl)cc1C(=O)N[C@H]1CC[C@H](Cn2c(=O)n(-c3ccc4c(c3)oc(=O)n4C)c3ccccc32)CC1 [Example 164, 5-chloro-2-methyl-N-((1r,4r)-4-((3-(3-methyl-2-oxo-2,3-dihydrobenzo[d]oxazol-6-yl)-2-oxo-2,3-dihydro-1H-benzo [d]imidazol-1-yl)methyl)cyclo-hexyl)nicotinamide]
CNc1ccc(-n2c(=O)n(C[C@H]3CC[C@H](NC(=O)c4cc(Cl)cnc4C)CC3)c3ccccc32)nc1 [Example 574, 5-chloro-2-methyl-N-((1r,4r)-4-((3-(5-(methylamino)pyridin-2-yl)-2-oxo-2,3-dihydro-1H-benzo[d]imidazol-1-yl)methyl)cyclohexyl)nicotinamide]
CNC(=O)c1cc(C)c(-n2c(=O)n(C[C@H]3CC[C@H](NC(=O)c4cc(Cl)cnc4C(F)F)CC3)c3ccccc32)cn1 [Example 363, 5-(3-(((1r,4r)-4-(5-chloro-2-(difluoromethyl)nicotinamido)cyclohexyl)methyl)-2-oxo-2,3-dihydro-1H-benzo[d]imidazol-1-yl)-N,4-dimethylpicolinamide]
O=C(N[C@H]1CC[C@H](Cn2c(=O)n(-c3ccc4cccnc4c3)c3ccccc32)CC1)c1cc(Cl)cnc1C(F)F [Example 422, 5-chloro-2-(difluoromethyl)-N-((1r,4r)-4-((2-oxo-3-(quinolin-7-yl)-2,3-dihydro-1H-benzo[d]imidazol-1-yl)methyl)cyclo-hexyl)nicotinamide]
Cc1ncc(Cl)cc1C(=O)N[C@H]1CC[C@H](Cn2c(=O)n(-c3ccc4c(cnn4C)c3)c3ccccc32)CC1 [Example 141, 5-chloro-2-methyl-N-((1r,4r)-4-((3-(1-methyl-1H-indazol-5-yl)-2-oxo-2,3-dihydro-1H-benzo [d]imidazol-1-yl)methyl)cyclohexyl)nicotinamide]
Cc1ncc(Cl)cc1C(=O)N[C@H]1CC[C@H](Cn2c(=O)n(-c3ccc4c(c3)cc(C(=O)N(C)C)n4C)c3ccccc32)CC1 [Example 405, 5-(3-(((1r,4r)-4-(5-chloro-2-methylnicotinamido)cyclo-hexyl)methyl)-2-oxo-2,3-dihydro-1H-benzo[d]imidazol-1-yl)-N,N,1-trimethyl-1H-indole-2-carboxamide]
O=C(N[C@H]1CC[C@H](Cn2c(=O)n(-c3ccc(N4CC[C@@H](O)C4)nc3)c3ccccc32)CC1)c1cc(Cl)cnc1C(F)F [Example 461, 5-chloro-2-(difluoromethyl)-N-((1R,4r)-4-((3-(6-((R)-3-hydroxypyrrolidin-1-yl)pyridin-3-yl)-2-oxo-2,3-dihydro-1H-benzo[d]imidazol-1-yl)methyl)cyclohexyl) nicotinamide]
Cc1n[nH]c2ccc(-n3c(=O)n(C[C@H]4CC[C@H](NC(=O)c5cc(Cl)cnc5C(F)F)CC4)c4cccnc43)cc12 [Example 576, 5-chloro-2-(difluoromethyl)-N-((1r,4r)-4-((3-(3-methyl-1H-indazol-5-yl)-2-oxo-2,3-dihydro-1H-imidazo[4,5-b]pyridin-1-yl)methyl)cyclo-hexyl)nicotinamide]
Cc1ccc(-n2c(=O)n(C[C@H]3CC[C@H](NC(=O)c4cc(Cl)ccc4C4CC4)CC3)c3ccccc32)cn1 [Example 266, 5-chloro-2-cyclopropyl-N-((1r,4r)-4-((3-(6-methyl-pyridin-3-yl)-2-oxo-2,3-dihydro-1H-benzo[d]imidazol-1-yl)methyl)cyclo-hexyl)benzamide]
Cc1ncc(Cl)cc1C(=O)N[C@H]1CC[C@H](Cn2c(=O)n(-c3ccc(N4CC(F)(F)C4)nc3)c3ccccc32)CC1 [Example 146, 5-chloro-N-((1r,4r)-4-((3-(6-(3,3-difluoroazetidin-1-yl)pyridin-3-yl)-2-oxo-2,3-dihydro-1H-benzo[d]imidazol-1-yl)methyl)cyclo-hexyl)-2-methylnicotinamide]
COc1ccc(-n2c(=O)n(C[C@H]3CC[C@H](NC(=O)c4c5ccccc5nn4C)CC3)c3ccccc32)cn1 [Example 220, N-((1r,4r)-4-((3-(6-methoxy-pyridin-3-yl)-2-oxo-2,3-dihydro-1H-benzo[d]imidazol-1-yl)methyl)cyclohexyl)-2-methyl-2H-indazole-3-carboxamide]
Cc1ncc(Cl)cc1C(=O)N[C@H]1CC[C@H](Cn2c(=O)n(-c3cccc(N4CCNC4=O)n3)c3ccccc32)CC1 [Example 772, 5-chloro-2-methyl-N-((1r,4r)-4-((2-oxo-3-(6-(2-oxo-imidazolidin-1-yl)pyridin-2-yl)-2,3-dihydro-1H-benzo [d]imidazol-1-yl)methyl)cyclohexyl)nicotinamide]
Cc1ncc(Cl)cc1C(=O)N[C@H]1CC[C@H](Cn2c(=O)n(-c3ccc4nccn4c3)c3ccccc32)CC1 [Example 186, 5-chloro-N-((1r,4r)-4-((3-(imidazo[1,2-a]pyridin-6-yl)-2-oxo-2,3-dihydro-1H-benzo [d]imidazol-1-yl)methyl)cyclohexyl)-2-methylnico-tinamide]
Cc1ncc(Cl)cc1C(=O)N[C@H]1CC[C@H](Cn2c(=O)n(-c3ccc(SCCO)nc3)c3ccccc32)CC1 [Example 412, 5-chloro-N-((1r,4r)-4-((3-(6-((2-hydroxyethyl)thio)pyridin-3-yl)-2-oxo-2,3-dihydro-1H-benzo[d]imidazol-1-yl)methyl)cyclohexyl)-2-methylnicotinamide]
Cc1ncc(Cl)cc1C(=O)N[C@H]1CC[C@H](Cn2c(=O)n(-c3cccc(N4CCOCC4)c3)c3ccccc32)CC1 [Example 444, 5-chloro-2-methyl-N-((1r,4r)-4-((3-(3-morpholinophenyl)-2-oxo-2,3-dihydro-1H-benzo [d]imidazol-1-yl)methyl)cyclo-hexyl)nicotinamide]
Cc1ncc(Cl)cc1C(=O)N[C@H]1CC[C@H](Cn2c(=O)n(-c3ccccc3Cl)c3cccnc32)CC1 [Example 256, 5-chloro-N-((1r,4r)-4-((1-(2-chlorophenyl)-2-oxo-1H-imidazo[4,5-b]pyridin-3(2H)-yl)methyl)cyclohexyl)-2-methylnicotinamide]
N#Cc1ncccc1-n1c(=O)n(C[C@H]2CC[C@H](NC(=O)c3cc(Cl)cnc3C(F)(F)F)CC2)c2ccccc21 [Example 293, 5-chloro-N-((1r,4r)-4-((3-(2-cyanopyridin-3-yl)-2-oxo-2,3-dihydro-1H-benzo [d]imidazol-1-yl)methyl)cyclohexyl)-2-(trifluoro-methyl)nicotinamide]
COc1ccc(C#N)c(-n2c(=O)n(C[C@H]3CC[C@H](NC(=O)c4cc(Cl)cnc4C(F)(F)F)CC3)c3ccccc32)c1 [Example 292, 5-chloro-N-((1r,4r)-4-((3-(2-cyano-5-methoxyphenyl)-2-oxo-2,3-dihydro-1H-benzo[d]imidazol-1-yl)methyl)cyclohexyl)-2-(trifluoromethyl)nicotinamide]
Cc1c[nH]c2ncc(-n3c(=O)n(C[C@H]4CC[C@H](NC(=O)c5cc(Cl)cnc5C(F)F)CC4)c4ccccc43)cc12 [Example 456, 5-chloro-2-(difluoromethyl)-N-((1r,4r)-4-((3-(3-methyl-1H-pyrrolo[2,3-b]pyridin-5-yl)-2-oxo-2,3-dihydro-1H-benzo[d]imidazol-1-yl)methyl)cyclohexyl)nicotinamide]
Cc1ncc(Cl)cc1C(=O)N[C@H]1CC[C@H](Cn2c(=O)n(-c3ccc(C4CCC4)nc3)c3ccccc32)CC1 [Example 279, 5-chloro-N-((1r,4r)-4-((3-(6-cyclobutylpyridin-3-yl)-2-oxo-2,3-dihydro-1H-benzo[d]imidazol-1-yl)methyl)cyclohexyl)-2-methylnicotinamide]
CN(C)c1cccc(-n2c(=O)n(C[C@H]3CC[C@H](NC(=O)c4cc(Cl)cnc4C(F)F)CC3)c3ccccc32)n1 [Example 659, 5-chloro-2-(difluoromethyl)-N-((1r,4r)-4-((3-(6-(dimethyl-amino)pyridin-2-yl)-2-oxo-2,3-dihydro-1H-benzo[d]imidazol-1-yl)methyl)cyclo-hexyl)nicotinamide]
